Assay results as given in US20090191253A2 (Creabilis Therapeutics S.P.A., priority 2005, published 2009).

How the values were obtained:
MER = target: T1, MER (Homo sapiens, UniProt Q12866); experiment: Kinase inhibition profiling MER (ELISA); format: biochemical
T1 construct: made in house; host or cells: baculovirus expression system
Method: (§1) Each test compound was weighed and dissolved in DMSO to make 1 mM stock solution. The stock solution was diluted with DMSO to achieve 20 μM. The compound solution was diluted with the assay buffer to achieve 0.8 μM.

CSK = target: T2, CSK (Homo sapiens, UniProt P41240); experiment: Kinase inhibition profiling CSK (ELISA); format: biochemical
T2 construct: His (N, cleaved yes); made in house; host or cells: baculovirus expression system
T2 sequence (P41240 whole entry): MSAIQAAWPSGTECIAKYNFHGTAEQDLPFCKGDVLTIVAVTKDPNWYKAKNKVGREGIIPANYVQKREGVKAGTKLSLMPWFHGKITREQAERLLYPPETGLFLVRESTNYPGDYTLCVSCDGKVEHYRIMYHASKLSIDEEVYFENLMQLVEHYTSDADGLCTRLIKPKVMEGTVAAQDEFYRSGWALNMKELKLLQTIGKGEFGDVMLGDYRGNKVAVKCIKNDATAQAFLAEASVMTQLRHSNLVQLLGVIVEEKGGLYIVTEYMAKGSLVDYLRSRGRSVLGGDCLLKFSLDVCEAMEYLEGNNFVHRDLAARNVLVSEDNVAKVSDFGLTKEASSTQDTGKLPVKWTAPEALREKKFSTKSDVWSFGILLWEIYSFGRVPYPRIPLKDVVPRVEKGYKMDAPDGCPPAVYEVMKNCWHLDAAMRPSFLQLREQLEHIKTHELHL
Method: as §1

HER4 = target: T3, HER4 (Homo sapiens, UniProt Q15303); experiment: Kinase inhibition profiling HER4 (ELISA); format: biochemical
T3 construct: Cytoplasmic domain of human HER4 [676-1308 amino; made in house; host or cells: baculovirus expression system
T3 sequence (Q15303 676-1308): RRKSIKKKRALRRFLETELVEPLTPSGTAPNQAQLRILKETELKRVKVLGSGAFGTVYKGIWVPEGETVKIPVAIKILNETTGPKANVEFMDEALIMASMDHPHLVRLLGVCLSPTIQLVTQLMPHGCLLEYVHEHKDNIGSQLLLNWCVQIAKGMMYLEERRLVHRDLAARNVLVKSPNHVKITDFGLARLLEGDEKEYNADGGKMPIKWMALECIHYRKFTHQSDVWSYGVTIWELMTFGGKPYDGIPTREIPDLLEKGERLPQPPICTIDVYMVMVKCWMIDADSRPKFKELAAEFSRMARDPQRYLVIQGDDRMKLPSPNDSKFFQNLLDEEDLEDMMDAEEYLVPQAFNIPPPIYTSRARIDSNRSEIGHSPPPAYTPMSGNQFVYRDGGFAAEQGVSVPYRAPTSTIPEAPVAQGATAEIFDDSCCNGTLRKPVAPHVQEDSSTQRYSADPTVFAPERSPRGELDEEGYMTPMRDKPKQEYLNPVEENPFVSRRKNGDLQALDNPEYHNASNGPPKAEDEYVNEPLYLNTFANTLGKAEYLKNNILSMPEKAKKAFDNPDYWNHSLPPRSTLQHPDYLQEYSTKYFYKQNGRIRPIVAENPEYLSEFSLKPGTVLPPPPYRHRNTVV
Method: as §1

EphA2 = target: T4, EphA2 (Homo sapiens, UniProt P29317); experiment: Kinase inhibition profiling EphA2 (ELISA); format: biochemical
T4 construct: made in house; host or cells: baculovirus expression system
T4 sequence (P29317 572-976): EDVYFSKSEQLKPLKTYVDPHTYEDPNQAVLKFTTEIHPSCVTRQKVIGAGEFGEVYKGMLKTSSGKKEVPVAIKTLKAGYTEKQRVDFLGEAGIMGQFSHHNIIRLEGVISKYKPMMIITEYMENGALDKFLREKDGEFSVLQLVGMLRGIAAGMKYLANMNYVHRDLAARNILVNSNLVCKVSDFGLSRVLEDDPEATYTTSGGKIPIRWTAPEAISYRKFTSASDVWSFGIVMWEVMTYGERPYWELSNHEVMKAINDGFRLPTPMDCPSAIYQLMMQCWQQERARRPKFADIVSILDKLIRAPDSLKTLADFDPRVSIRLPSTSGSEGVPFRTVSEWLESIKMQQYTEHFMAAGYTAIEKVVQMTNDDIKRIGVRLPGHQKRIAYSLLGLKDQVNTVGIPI
Method: as §1

EphB4 = target: T5, EphB4 (Homo sapiens, UniProt P54760); experiment: Kinase inhibition profiling EphB4 (ELISA); format: biochemical
T5 construct: Cytoplasmic domain of human EphB4 [577-987 amino; made in house; host or cells: baculovirus expression system
T5 sequence (P54760 577-987): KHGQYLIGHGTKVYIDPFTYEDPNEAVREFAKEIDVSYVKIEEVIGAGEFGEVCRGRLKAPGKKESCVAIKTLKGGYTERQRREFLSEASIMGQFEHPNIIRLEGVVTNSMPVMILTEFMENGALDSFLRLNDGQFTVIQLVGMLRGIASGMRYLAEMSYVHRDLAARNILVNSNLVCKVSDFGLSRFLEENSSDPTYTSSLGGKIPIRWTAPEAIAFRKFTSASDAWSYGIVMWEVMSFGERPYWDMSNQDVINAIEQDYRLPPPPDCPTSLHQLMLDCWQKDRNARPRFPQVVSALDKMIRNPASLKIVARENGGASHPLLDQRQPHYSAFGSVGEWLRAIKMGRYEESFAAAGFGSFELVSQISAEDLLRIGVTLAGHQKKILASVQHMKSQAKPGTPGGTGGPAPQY
Method: as §1

IGF1R = target: T6, IGF1R (Homo sapiens, UniProt P08069); experiment: Kinase inhibition profiling IGF1R (ELISA); format: biochemical
T6 construct: Cytoplasmic domain of human IGF1R [959-1367 amino; made in house; host or cells: baculovirus expression system
T6 sequence (P08069 959-1367): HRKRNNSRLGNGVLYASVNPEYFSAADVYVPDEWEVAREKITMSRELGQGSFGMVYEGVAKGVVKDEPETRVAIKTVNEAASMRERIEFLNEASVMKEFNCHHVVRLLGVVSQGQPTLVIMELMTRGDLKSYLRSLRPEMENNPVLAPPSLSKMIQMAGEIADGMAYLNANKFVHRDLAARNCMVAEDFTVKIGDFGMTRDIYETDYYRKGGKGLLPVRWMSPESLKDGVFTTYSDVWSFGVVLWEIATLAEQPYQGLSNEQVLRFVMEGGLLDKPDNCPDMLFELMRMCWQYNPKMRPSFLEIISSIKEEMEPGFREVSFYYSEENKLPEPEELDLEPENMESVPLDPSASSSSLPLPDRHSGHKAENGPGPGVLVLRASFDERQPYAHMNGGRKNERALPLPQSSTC
Method: as §1

TYK2 = target: T7, TYK2 (Homo sapiens, UniProt P29597); experiment: Kinase inhibition profiling TYK2 (ELISA); format: biochemical
T7 construct: Kinase domain (KD) of human TYK2 [871-1187 amino; made in house; host or cells: baculovirus expression system
T7 sequence (P29597 871-1187): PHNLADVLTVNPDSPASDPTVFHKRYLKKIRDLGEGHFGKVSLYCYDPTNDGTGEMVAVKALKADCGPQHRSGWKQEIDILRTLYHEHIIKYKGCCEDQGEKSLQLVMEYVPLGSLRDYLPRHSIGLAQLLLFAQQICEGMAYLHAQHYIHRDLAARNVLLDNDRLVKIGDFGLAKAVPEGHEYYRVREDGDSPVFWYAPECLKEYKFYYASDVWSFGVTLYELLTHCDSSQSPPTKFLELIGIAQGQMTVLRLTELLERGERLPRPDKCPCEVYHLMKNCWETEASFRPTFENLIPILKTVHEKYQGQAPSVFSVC
Method: as §1

FMS(CSFR) = target: T8, FMS(CSFR) (Homo sapiens, UniProt P07333); experiment: Kinase inhibition profiling FMS(CSFR) (ELISA); format: biochemical
T8 construct: Cytoplasmic domain of human FMS [538-972 amino; made in house; host or cells: baculovirus expression system
T8 sequence (P07333 538-972): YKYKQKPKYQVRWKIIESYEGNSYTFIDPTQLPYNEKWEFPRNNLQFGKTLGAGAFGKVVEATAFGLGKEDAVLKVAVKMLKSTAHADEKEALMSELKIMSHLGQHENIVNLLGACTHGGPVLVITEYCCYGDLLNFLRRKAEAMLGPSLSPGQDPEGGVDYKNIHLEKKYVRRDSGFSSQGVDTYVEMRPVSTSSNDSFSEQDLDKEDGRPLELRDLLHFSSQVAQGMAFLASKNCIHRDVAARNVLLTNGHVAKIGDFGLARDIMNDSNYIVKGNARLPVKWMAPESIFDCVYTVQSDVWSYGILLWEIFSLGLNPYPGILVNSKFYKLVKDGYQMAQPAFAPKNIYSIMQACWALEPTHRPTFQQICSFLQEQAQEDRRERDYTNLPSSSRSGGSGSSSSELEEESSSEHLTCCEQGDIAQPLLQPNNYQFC
Method: as §1

BRK = target: T9, BRK (Homo sapiens, UniProt Q13882); experiment: Kinase inhibition profiling BRK (ELISA); format: biochemical
T9 construct: made in house; host or cells: baculovirus expression system
T9 sequence (Q13882 2-450): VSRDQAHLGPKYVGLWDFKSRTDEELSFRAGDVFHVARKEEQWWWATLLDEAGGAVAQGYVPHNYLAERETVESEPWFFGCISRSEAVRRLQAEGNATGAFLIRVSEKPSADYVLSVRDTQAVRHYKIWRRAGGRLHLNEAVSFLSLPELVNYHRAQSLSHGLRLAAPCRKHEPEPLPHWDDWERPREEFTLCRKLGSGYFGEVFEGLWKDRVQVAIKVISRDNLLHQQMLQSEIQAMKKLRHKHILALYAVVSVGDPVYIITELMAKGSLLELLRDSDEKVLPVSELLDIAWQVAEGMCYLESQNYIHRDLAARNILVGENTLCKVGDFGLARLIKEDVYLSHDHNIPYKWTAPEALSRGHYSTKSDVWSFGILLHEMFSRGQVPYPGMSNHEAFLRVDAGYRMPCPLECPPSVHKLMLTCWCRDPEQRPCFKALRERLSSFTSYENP
Method: (§2) In particular, the target kinases were Tyrosine kinases and Serine/Threonine kinases.
as §1

FYN = target: T10, FYN (Homo sapiens, UniProt P06241); experiment: Kinase inhibition profiling FYN (ELISA); format: biochemical; note: ATP 20 µM
T10 construct: made in house; host or cells: baculovirus expression system
T10 sequence (P06241 whole entry): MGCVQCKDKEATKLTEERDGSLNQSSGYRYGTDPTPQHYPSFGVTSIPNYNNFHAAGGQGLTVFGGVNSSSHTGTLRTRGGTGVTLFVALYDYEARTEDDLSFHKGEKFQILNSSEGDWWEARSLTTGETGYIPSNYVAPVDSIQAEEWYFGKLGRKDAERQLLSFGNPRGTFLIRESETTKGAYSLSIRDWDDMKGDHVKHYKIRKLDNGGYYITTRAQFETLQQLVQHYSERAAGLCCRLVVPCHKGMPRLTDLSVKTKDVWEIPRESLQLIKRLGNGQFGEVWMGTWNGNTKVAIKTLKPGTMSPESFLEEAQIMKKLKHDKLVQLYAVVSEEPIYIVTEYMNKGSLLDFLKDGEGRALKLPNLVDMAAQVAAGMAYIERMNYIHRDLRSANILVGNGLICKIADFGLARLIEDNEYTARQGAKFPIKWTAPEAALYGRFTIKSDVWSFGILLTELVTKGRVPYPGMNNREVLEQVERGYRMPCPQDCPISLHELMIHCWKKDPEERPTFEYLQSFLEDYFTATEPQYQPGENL
Method: as §2, §1

SRC = target: T11, SRC (Homo sapiens, UniProt P12931); experiment: Kinase inhibition profiling SRC (ELISA); format: biochemical
T11 construct: made in house; host or cells: baculovirus expression system
Method: as §1

FLT1 = target: T12, FLT1 (Homo sapiens, UniProt P17948); experiment: Kinase inhibition profiling FLT1 (ELISA); format: biochemical; note: ATP 20 µM
T12 construct: Cytoplasmic domain of human FLT1 [781-1338 amino; made in house; host or cells: baculovirus expression system
Method: as §2, §1

PKCε = target: T13, PKCε (Homo sapiens, UniProt Q02156); experiment: Kinase inhibition profiling PKCε (IMAP); format: biochemical
T13 construct: made in house; host or cells: baculovirus expression system
Method: as §1

CDK2/cyclinA = target: T14, CDK2/cyclinA (Homo sapiens, UniProt P24941); experiment: Kinase inhibition profiling CDK2/cyclinA (IMAP); format: biochemical
T14 construct: His (N); made in house; host or cells: baculovirus expression system
Method: as §1

JNK1 = target: T15, JNK1 (Homo sapiens, UniProt P45983); experiment: Kinase inhibition profiling JNK1 (ELISA); format: biochemical
T15 construct: Human JNK1 containing 364 amino acids was expressed; His (C); made in house; host or cells: E. coli
Method: as §1

AurA = target: T16, AurA (Homo sapiens, UniProt O14965); experiment: Kinase inhibition profiling AurA (IMAP); format: biochemical
T16 construct: GST (N); made in house; host or cells: baculovirus expression system
Method: as §1

MAP2K7 = target: T17, MAP2K7 (Homo sapiens, UniProt O14733, S271E/S277E/T275E); experiment: Kinase inhibition profiling MAP2K7 (AlphaScreen, cascade); format: biochemical
T17 construct: T275E, S277E] derived from wild type [419 amino acids; GST (N); made in house; host or cells: E. coli
T17 sequence (O14733 whole entry S271E/T275E/S277E): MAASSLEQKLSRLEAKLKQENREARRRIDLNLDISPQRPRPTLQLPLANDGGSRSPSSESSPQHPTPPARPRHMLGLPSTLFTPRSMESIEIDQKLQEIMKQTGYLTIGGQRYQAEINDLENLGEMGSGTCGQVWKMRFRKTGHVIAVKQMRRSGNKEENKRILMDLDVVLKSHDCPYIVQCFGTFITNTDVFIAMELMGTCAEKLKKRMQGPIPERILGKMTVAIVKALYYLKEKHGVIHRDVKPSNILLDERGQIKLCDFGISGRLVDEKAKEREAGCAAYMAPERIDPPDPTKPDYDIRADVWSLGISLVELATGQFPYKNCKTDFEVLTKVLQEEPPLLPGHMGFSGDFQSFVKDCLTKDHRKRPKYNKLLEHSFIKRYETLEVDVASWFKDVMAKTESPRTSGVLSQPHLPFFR
Description: AlphaScreen Assay [drawing 4]

[1] = system: bovine aorta smooth muscle cells (BASMC); experiment: Proliferation assay, HMGB1-induced BASMC proliferation; format: cell-based; settings: K-252a 3, 10, 30, 100 or 300 nM; HMGB1 25 ng/ml (1 nM); days 1-4
Method: Proliferation assays were performed using an already described and validated method (1). BASMC cells (bovine aorta smooth muscle cells) were seeded in 6-well plates (10^5 cells/well) and grown in RPMI medium supplemented with 20% FCS. After 24 h, the medium was replaced with serum-free RPMI and cell were then starved for 16 hours to synchronize the cell population. […] Each experimental point represents the mean+/−SD of triplicate determinations. The experiment was repeated three times. BASMC cell proliferation was determined by detaching the cells from the plate at the indicated times (on days 1, 2, 3, and 4 of culturing) and counting the Trypan-blue excluding cells under the microscope.

T1 sequence (Q12866 528-999): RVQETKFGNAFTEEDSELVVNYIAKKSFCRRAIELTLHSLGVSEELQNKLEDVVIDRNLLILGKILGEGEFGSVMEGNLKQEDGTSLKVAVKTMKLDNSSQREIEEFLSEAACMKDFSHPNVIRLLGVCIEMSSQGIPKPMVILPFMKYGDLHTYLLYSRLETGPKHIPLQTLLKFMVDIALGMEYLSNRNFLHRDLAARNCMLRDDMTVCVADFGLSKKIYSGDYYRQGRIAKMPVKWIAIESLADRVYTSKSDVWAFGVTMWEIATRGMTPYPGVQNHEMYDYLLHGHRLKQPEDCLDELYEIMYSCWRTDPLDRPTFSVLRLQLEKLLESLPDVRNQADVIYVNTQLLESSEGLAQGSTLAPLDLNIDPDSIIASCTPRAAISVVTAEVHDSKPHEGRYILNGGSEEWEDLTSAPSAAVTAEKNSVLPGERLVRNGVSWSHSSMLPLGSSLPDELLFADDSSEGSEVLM

Question: For COC(=O)[C@]1(O)CC2O[C@@]1(C)n1c3ccccc3c3c4c(c5c6ccccc6n2c5c31)C(=O)NC4 [K-252a], which inhibition at 0.2 µM (MER) is on record?
Answer: Its inhibition at 0.2 µM is 80.8%.

Question: And the inhibition at 0.2 µM (CSK)?
Answer: Its inhibition at 0.2 µM is 43%.

Question: And the inhibition at 0.2 µM (HER4)?
Answer: The inhibition at 0.2 µM was 39.4%.

Question: And the inhibition at 0.2 µM (EphA2)?
Answer: The inhibition at 0.2 µM was 8.9%.

Question: And the inhibition at 0.2 µM (EphB4)?
Answer: The inhibition at 0.2 µM was 13.3%.

Question: And the inhibition at 0.2 µM (IGF1R)?
Answer: Its inhibition at 0.2 µM is 40.6%.

Question: What about the inhibition at 0.2 µM (TYK2) of the same compound?
Answer: Its inhibition at 0.2 µM is 98.1%.

Question: What about the inhibition at 0.2 µM (FMS(CSFR)) of the same compound?
Answer: The inhibition at 0.2 µM was 55.7%.

Question: And the inhibition at 0.2 µM (BRK)?
Answer: The inhibition at 0.2 µM was 35.8%.

Question: What about the inhibition at 0.2 µM (FYN) of the same compound?
Answer: Its inhibition at 0.2 µM is 67.2%.

Question: And the inhibition at 0.2 µM (SRC)?
Answer: The inhibition at 0.2 µM was 20.6%.

Question: What about the inhibition at 0.2 µM (FLT1) of the same compound?
Answer: Its inhibition at 0.2 µM is 73.9%.

Question: And the inhibition at 0.2 µM (PKCε)?
Answer: The inhibition at 0.2 µM was 60.9%.

Question: What about the inhibition at 0.2 µM (CDK2/cyclinA) of the same compound?
Answer: The inhibition at 0.2 µM was 75.5%.

Question: And the inhibition at 0.2 µM (JNK1)?
Answer: Its inhibition at 0.2 µM is 94.3%.

Question: What about the inhibition at 0.2 µM (AurA) of the same compound?
Answer: The inhibition at 0.2 µM was 91.9%.

Question: What about the inhibition at 0.2 µM (MAP2K7) of the same compound?
Answer: The inhibition at 0.2 µM was 68.2%.

Question: What about the “HMGB1-induced BASMC cell proliferation” value [1] of the same compound?
Answer: Its value is “antagonizes BASMC cell proliferation at all the concentrations tested in a time-dependent fashion and in a nM range”.
